Laboratory results from patent publication US10988478B1, “Pyrazolo[1,5a]pyrimidine derivatives as IRAK4 modulators” (Genentech, Inc., priority 2015, dated 2021).

Target: human IRAK4 (Homo sapiens (Human), UniProt Q9NWZ3)
Assay: IRAK4 kinase inhibition, Transcreener fluorescence polarization ADP assay
Type: biochemical
Settings: recombinant full-length His6-IRAK4; 125 uM ATP; 90 min; Ki computed using ATP Km 642 uM
Method: Compounds were assayed for inhibition of human IRAK4 and IRAK1 catalytic activity using recombinant enzyme produced from insect cells. Full-length IRAK4 protein, carrying an N-terminal His6-Tag, was obtained from Life Technologies (Carlsbad, Calif., USA). The IRAK1 construct was produced internally and was comprised of IRAK1 residues Arg194 to Ser712, preceded by an NH2-terminal His6 tag and the coding sequence for glutathione-S-transferase.

Chain of human IRAK4 (Q9NWZ3 whole entry): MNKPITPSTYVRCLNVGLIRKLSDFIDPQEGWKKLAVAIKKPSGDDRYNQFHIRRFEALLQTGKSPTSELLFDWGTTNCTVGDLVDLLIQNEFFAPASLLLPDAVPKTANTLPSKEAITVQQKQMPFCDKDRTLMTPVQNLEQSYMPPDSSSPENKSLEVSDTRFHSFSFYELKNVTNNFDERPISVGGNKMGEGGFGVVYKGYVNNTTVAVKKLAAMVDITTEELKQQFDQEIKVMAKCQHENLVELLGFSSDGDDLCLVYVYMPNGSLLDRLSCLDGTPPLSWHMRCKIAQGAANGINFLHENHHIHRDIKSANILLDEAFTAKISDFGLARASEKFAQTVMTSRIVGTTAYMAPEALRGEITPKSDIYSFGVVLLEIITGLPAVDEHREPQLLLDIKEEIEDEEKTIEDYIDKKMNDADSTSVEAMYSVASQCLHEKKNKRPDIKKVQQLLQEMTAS

Row | Structure (SMILES) | Ki
1 | CC(C)(O)[C@H](F)CN1Cc2cc(NC(=O)c3cnn4cc(Cl)cnc34)c(N3CCN(CC(F)F)CC3)cc2C1=O [Example 285, 6-Chloro-N-[6-[4-(2,2-difluoroethyl)piperazin-1-yl]-2-[(2R)-2-fluoro-3-hydroxy-3-methyl-butyl]-1-oxo-isoindolin-5-yl]pyrazolo[1,5-a]pyrimidine-3-carboxamide] | 2 nM
2 | CC(C)(O)[C@H](F)CN1Cc2cc(NC(=O)c3cnn4cc(C(N)=O)cnc34)c(N3CCOCC3)cc2C1=O [Example 286, N3-[2-[(2R)-2-Fluoro-3-hydroxy-3-methyl-butyl]-6-morpholino-1-oxo-isoindolin-5-yl]pyrazolo[1,5-a]pyrimidine-3,6-dicarboxamide] | 2 nM
3 | CC(C)N1Cc2cc(NC(=O)c3cnn4cccnc34)c(N3CCOCC3)cc2S1(=O)=O [Example 287, N-(2-Isopropyl-6-morpholino-1,1-dioxo-3H-1,2-benzothiazol-5-yl)pyrazolo[1,5-a] pyrimidine-3-carboxamide] | 26 nM
4 | CC(C)(O)CN1Cc2cc(NC(=O)c3cnn4cccnc34)c(N3CCOCC3)cc2S1(=O)=O [Example 288, N-[2-(2-Hydroxy-2-methyl-propyl)-6-morpholino-1,1-dioxo-3H-1,2-benzothiazol-5-yl]pyrazolo[1,5-a]pyrimidine-3-carboxamide] | 63 nM
5 | CC(C)(O)[C@H](F)CN1Cc2cc(NC(=O)c3cnn4cccnc34)c(N3CCOCC3)cc2S1(=O)=O [Example 289, N-[2-[(2R)-2-Fluoro-3-hydroxy-3-methyl-butyl]-6-morpholino-1,1-dioxo-3H-1,2-benzothiazol-5-yl]pyrazolo[1,5-a]pyrimidine-3-carboxamide] | 8 nM
6 | CCOP(=O)(OCC)OCC1(C)Cc2cc(NC(=O)c3cnn4cccnc34)c(N3CCOCC3)cc2O1 (stereo not drawn) [Example 290, Diethyl ((2-methyl-6-morpholino-5-(pyrazolo[1,5-a]pyrimidine-3-carboxamido)-2,3-dihydrobenzofuran-2-yl)methyl) phosphate] | 180 nM
7 | CC1(C)Cc2cc(NC(=O)c3cnn4cccnc34)c(OC[C@H]3CCCN3)cc2O1 [Example 291, (R)—N-(2,2-Dimethyl-6-(pyrrolidin-2-ylmethoxy)-2,3-dihydrobenzofuran-5-yl)pyrazolo[1,5-a]pyrimidine-3-carboxamide] | 380 nM
8 | CC1(C)Cc2cc(NC(=O)c3cnn4cccnc34)c(OC[C@H]3CCCN3CC(F)F)cc2O1 [Example 292, (R)—N-(6-((1-(2,2-Difluoroethyl)pyrrolidin-2-yl)methoxy)-2,2-dimethyl-2,3-dihydrobenzofuran-5-yl)pyrazolo[1,5-a]pyrimidine-3-carboxamide] | 760 nM
9 | CC1(C)Cc2cc(NC(=O)c3cnn4cccnc34)c(OC[C@@H]3C[C@@H]4C[C@@H]4N3CC(F)F)cc2O1 [Example 293, N-(6-(((1S,3S,5S)-2-(2,2-difluoroethyl)-2-azabicyclo[3.1.0]hexan-3-yl)methoxy)-2,2-dimethyl-2,3-dihydrobenzofuran-5-yl)pyrazolo[1,5-a]pyrimidine-3-carboxamide] | 690 nM
10 | CC1(C)Cc2cc(NC(=O)c3cnn4cccnc34)c(OC[C@@H]3[C@H]4CN(CC(F)F)C[C@@H]34)cc2O1 [Example 294, N-(6-(((1R,5S,6R)-3-(2,2-difluoroethyl)-3-azabicyclo[3.1.0]hexan-6-yl)methoxy)-2,2-dimethyl-2,3-dihydrobenzofuran-5-yl)pyrazolo[1,5-a]pyrimidine-3-carboxamide] | 14 nM
11 | CC1(C)Cc2cc(NC(=O)c3cnn4cccnc34)c(OC[C@H]3[C@@H]4CNC[C@@H]43)cc2O1 [Example 295, N-(6-(((1R,5S,6R)-3-azabicyclo[3.1.0]hexan-6-yl)methoxy)-2,2-dimethyl-2,3-dihydrobenzofuran-5-yl)pyrazolo[1,5-a]pyrimidine-3-carboxamide] | 8.2 nM
12 | CC1(C)Cc2cc(NC(=O)c3cnn4cccnc34)c(OCC3CCOC3)cc2O1 (stereo not drawn) [Example 296, N-(2,2-Dimethyl-6-((tetrahydrofuran-3-yl)methoxy)-2,3-dihydrobenzofuran-5-yl)pyrazolo[1,5-α]pyrimidine-3-carboxamide] | 18 nM
